{
  "source": "patent US20250319037A1",
  "about": "“METHODS OF DELIVERING THERAPEUTIC AGENTS, AND LIPID COMPOSITIONS” (FUJIFILM Corporation, priority 2022, published 2025)",
  "origin": "cited, not measured here",
  "conditions": "Non-patent documents 11 and 12",
  "data": [
    {"smiles": "CC(C)CCC[C@@H](C)[C@H]1CC[C@H]2[C@@H]3CC=C4C[C@@H](OC(=O)NCCN(C)C)CC[C@]4(C)[C@H]3CC[C@]12C", "note": "[DC-cholesterol]", "values": [
      {"measurement": "pKa of the tertiary amine group", "value": 7.8}
    ]}
  ]
}
